Counter-ions that a name gives are not always drawn.
How the values were obtained:
Type in all cases: physicochemical
[1] = HPLC analysis after removal of excess HCl with anion exchange resin (Example 4); conditions: pH raised from 1.04 to 2.5 with Amberlite 400 (OH) resin
Description: To 3.3 g of sample containing around 305 mg/ml S-[2-[(1-Iminoethyl)amino]ethyl]-2-methyl-L-cysteine dihydrochloride and around 0.2 eq excess HCl, was added 16.7 g of deioinized water. The pH was 1.04. To 14 ml of this solution, prewashed Amberlite 400 (OH) resin was added to obtain a ph of 2.5. The anion exchange treatment lightened the color of the solution from light yellow to water white. The resin was removed by filtration and the starting material and filtrate product were analyzed by chloride titration and HPLC.

[2] = Pseudo-titration in water with IRA-400(OH) anion exchange resin, samples assayed by HPLC (Example 3); conditions: not a true titration curve
Description: 60 g of Amberlite IRA400 (OH) resin (a strongly anionic quaternary ammonium polystyrene resin, about 16–50 mesh, available from Rohm & Haas, Philadelphia, Pa.,) was prewashed with 4.7 percent (by weight) ammonium hydroxide (50 ml of 28 percent ammonium hydroxide, 250 ml deionized water), followed by extensive washing with deionized water. The final conductivity was 6.1 μS.
Samples containing about 0.9 g of S-[2-[(1-Iminoethyl)amino]ethyl]-2-methyl-L-cysteine di-hydrochloride in 142 ml HCl/water solution, were concentrated on a rotary evaporator at 60° C. to an oil. To the oil, diluted to 60 ml with deionized water, was added aliquots of 0.5 g of washed anion exchange resin while stirring. At five minutes after each aliquot of resin was added, the solution pH was measured and a sample removed through a syringe filter. A total of 9 g of anion exchange resin was added. The final pH was 10.8. The resin was removed by filtration and the filtrate was concentrated to an oil by rotary evaporation at 60° C.; no solids formed. The starting material, final filtrate and all intermediate samples were assayed by HPLC and ion chromatography for chloride.
The diamond (solid line) is pH and square (dashed line) is S-[2-[(1-Iminoethyl)amino]ethyl]-2-methyl-L-cysteine (percent initial, by ion chromatography). […] The diamond (solid line) is pH and triangle (broken line) is chloride (by ion chromatography).
These curves are not true titration curves since samples were withdrawn during the progress of the reaction, and since true equilibrium was not attained before the increments of resin were added. Nevertheless, the graphs of FIG. 2 and FIG. 3 illustrate the expected trends. As resin is added to the S-[2-[(1-Iminoethyl)amino]ethyl]-2-methyl-L-cysteine solution the pH rises with change in slope around pH's of 2, 9 and 11. The pH's of slower rise are representative of the pK's of the carboxylic acid, amine and amidine functional groups, respectively. Above a pH of 10, the S-[2-[(1-Iminoethyl)amino]ethyl]-2-methyl-L-cysteine concentration in solution decreases. […]

[3] = Stability of free zwitterion samples at different pH by ion pairing gradient HPLC (Example 6, Table 2); conditions: summary of Table 2
Description: Amberlite IRA400 (Cl) resin was rinsed with 3M HCl, water, and then 3M NaOH. Aliquots were 100 ml per 10 g of resin. This procedure was repeated 3 times in order to clean the resin and in order to generate the OH form. A final rinse with water was carried out until the conductivity of the eluting water was 2 μS. The resin was then used to titrate 40 ml of a 50 mg/ml solution of S-[2-[(1-Iminoethyl)amino]ethyl]-2-methyl-L-cysteine dihydrochloride. The concentration is expressed in terms of zwitterion equivalents. Aliquots were taken throughout the titration, filtered and analyzed by HPLC. Subsamples of the aliquots were saved for a second HPLC analysis 1 week after the titration was performed in order to assess the stability of the samples. Additional aliquots were taken for Cl analysis using an ion selective electrode. The pH was also monitored throughout the titration. HPLC analyses were performed using an ion pairing gradient method. […] HPLC Method • Pump A: 20 mM KH2PO4, 10 mM Pentane sulfonic acid, adjusted to pH=3 with phosphoric acid • Pump B: Acetonitrile • Gradient: 0% B at 0 min, 26% B at 15 min, 0% B at 15.1 min • Column: YMC ODS-AQ 120 A, 5 μm, 2.6×150 mm • Wavelength=205 nm

Row | SMILES | Qualitative HPLC analysis of starting material and product [1] | pH of slower rise representative of the pK of the amidine group [2] | pH of slower rise representative of the pK of the amine group [2] | pH of slower rise representative of the pK of the carboxylic acid group [2] | Degradation when made basic (HPLC) [3]
1 | CC(=N)NCCSC[C@](C)(N)C(=O)O [Example 1, S-[2-[(1-Iminoethyl)amino]ethyl]-2-methyl-L-cysteine, dihydrochloride] | no new peaks and no increase in impurities |  |  |  | 
2 | CC(=N)NCCSC[C@](C)(N)C(=O)O [S-[2-[(1-Iminoethyl)amino]ethyl]-2-methyl-L-cysteine] |  | ~11 | ~9 | ~2 | degradation is not immediate but instead occurs over a period of days

Reference: patent US6995281B2, “Methods for selectively removing counterions from compounds and compounds derived from such methods” (Pfizer, Inc., priority 2003, dated 2006)
